# Measurements from US12473333B2, “Method for increasing ETEC CS6 antigen presentation on cell surface and products obtainable thereof” (Scandinavian Biopharma Holding AB, priority 2011, dated 2025).
# Like-named read-outs stand apart in the source and are kept apart here.
# Test system: CS6 expressing bacteria
# Protocol: These inactivated bacteria were then used for oral immunizations of mice.
# The suspensions were incubated for 2 h at 37° C. with shaking at 60 rpm, and then kept at 4° C. for 3 days without agitation. The bacterial suspensions were then centrifuged, washed, and re-suspended in the same volume of PBS and kept at 4° C. until use. In both inactivation methods, 0.1 ml of each suspension was spread onto blood agar and incubated at 37° C. for up to one week to check for lack of growth. Before being used for oral immunization, the level of CS6 on the inactivated bacteria was checked by inhibition ELISA.
compound,measurement,setting,value
Oc1ccccc1 [phenol],killing of the bacteria,0.25% phenol,did not result in complete killing of the bacteria
same,killing of the bacteria,"0.5% phenol, data not shown",killed the tested bacteria
